Assay results as given in patent publication US20240174618A1, “SUBSTITUTED (2-HETEROARYLOXYPHENYL)SULFONATES, SALTS THEREOF AND THEIR USE AS HERBICIDAL AGENTS” (Bayer Aktiengesellschaft, priority 2021, published 2024).

Columns and labels:
Type in all cases: in vivo
[1] = test system: Polygonum convolvulus (POLCO); assay: E. Herbicidal post-emergence efficacy, POLCO
Experimental: Seeds of monocotyledonous and dicotyledonous weeds and crop plants were placed in sandy loam in plastic or organic planting pots, covered with soil and cultivated in a greenhouse under controlled growth conditions. 2 to 3 weeks after sowing, the test plants were treated at the one-leaf stage. The compounds of the invention, formulated in the form of wettable powders (WP) or as emulsion concentrates (EC), were then sprayed onto the green parts of the plants as aqueous suspension or emulsion with addition of 0.5% additive at a water application rate of 600 l/ha (converted). After the test plants had been kept in the greenhouse under optimum growth conditions for about 3 weeks, the activity of the preparations was rated visually in comparison to untreated controls.
For example, • 100% efficacy=plants have died, • 0% action=like untreated control plants.
Tables E1a to E12b below show the effects of selected compounds of the general formula (I) according to table 1 on various harmful plants at an application rate corresponding to 320 g/ha or less, which were obtained by the experimental procedure mentioned above.

[2] = test system: Kochia scoparia (KCHSC); assay: A. Herbicidal pre-emergence efficacy, KCHSC
How it was run: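 Applied before emergence onto covering soil at rates of 1280 g/ha or less, using 600 L/ha spray water with 0.5% additive. Scoring: visual % efficacy after ~3 weeks, greenhouse.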

[3] = test system: Echinochloa crus-galli (ECHCG); assay: E. Herbicidal post-emergence efficacy, ECHCG
How it was run: (§1)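 Visual scoring against untreated plants was done roughly 3 weeks after spraying (0% = no effect, 100% = plants dead). Spray application at 320 g/ha or lower, 600 l/ha water with 0.5% additive, was made onto green parts of one-leaf-stage greenhouse plants grown 2-3 weeks in sandy loam.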

[4] = test system: Digitaria sanguinalis (DIGSA); assay: C. Herbicidal pre-emergence efficacy, DIGSA; details: scored after about 3 weeks
How it was run: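 Pre-emergence test: formulated compounds sprayed as aqueous suspension or emulsion with 0.5% additive at 600 l/ha onto soil covering sown seeds, at rates corresponding to 320 g/ha or less. After about 3 weeks in greenhouse, efficacy scored visually as percent versus untreated controls (100% = plants dead).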

[5] = test system: Amaranthus retroflexus (AMARE); assay: E. Herbicidal post-emergence efficacy, AMARE
How it was run: as §1

[6] = test system: Triticum aestivum (TRZAS); assay: F. Post-emergence effect on useful plants, TRZAS; details: useful plant
How it was run: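 Visual efficacy rating versus untreated plants, from 0% (no effect) to 100% (plants died), made about 3 weeks after post-emergence treatment. Formulated compounds (WP or EC, 0.5% additive, 600 l/ha water) were sprayed onto greenhouse-grown crops at the one-leaf stage, 2-3 weeks after sowing.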

[7] = test system: Poa annua (POAAN); assay: B. Herbicidal post-emergence efficacy, POAAN
How it was run: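 Post-emergence greenhouse test: one-leaf-stage plants, compound (WP/EC, +0.5% additive, 600 L/ha water, ≤1280 g/ha) applied to green parts; % efficacy scored visually vs untreated after ~3 wk; 100% = plants died.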

[8] = test system: Kochia scoparia (KCHSC); assay: E. Herbicidal post-emergence efficacy, KCHSC
How it was run: as §1

[9] = 80 g/ha, scored visually after about 3 weeks vs untreated controls
[10] = pre-emergence, dosage 1280 g/ha

SMILES | Post-emergence efficacy against TRZAS in % ([6]; application rate 80 g/ha) [%] | Post-emergence efficacy against TRZAS in % ([6]; application rate 320 g/ha) [%] | Post-emergence efficacy against POLCO in % ([1]; application rate 80 g/ha) [%] | Post-emergence efficacy against POLCO in % ([1]; application rate 320 g/ha) [%] | Pre-emergence efficacy against KCHSC [2, 9] [%] | Pre-emergence efficacy against KCHSC ([2]; pre-emergence, dosage 320 g/ha) [%] | Pre-emergence efficacy against KCHSC [2, 10] [%] | Post-emergence efficacy against ECHCG in % ([3]; application rate 320 g/ha) [%] | Pre-emergence efficacy against DIGSA ([4]; 80 g/ha) [%] | Pre-emergence efficacy against DIGSA ([4]; 320 g/ha) [%] | Post-emergence efficacy against AMARE in % ([5]; application rate 80 g/ha) [%] | Post-emergence efficacy against AMARE in % ([5]; application rate 320 g/ha) [%] | Post-emergence efficacy against POAAN ([7]; 80 g/ha) [%] | Post-emergence efficacy against POAAN ([7]; 320 g/ha) [%] | Post-emergence efficacy against POAAN ([7]; 1280 g/ha) [%] | Post-emergence efficacy against KCHSC in % ([8]; application rate 80 g/ha) [%] | Post-emergence efficacy against KCHSC in % ([8]; application rate 320 g/ha) [%] | Post-emergence efficacy against ECHCG in % ([3]; application rate 80 g/ha) [%]
O=S(=O)(CC1CC1)Oc1ccccc1Oc1ncc(Cl)cn1 [Example I-23] | 0 | – | 100 | 100 | 90 | 100 | 100 | 100 | 100 | 100 | 100 | 100 | 90 | 90 | 100 | – | – | –
O=S(=O)(CCCC(F)(F)F)Oc1c(Cl)cccc1Oc1ncc(Br)cn1 [Example I-34] | 0 | 20 | – | 100 | – | – | 90 | 90 | 90 | 100 | 100 | 100 | – | 100 | 100 | 100 | 100 | –
O=S(=O)(CCC(F)(F)F)Oc1c(Cl)cccc1Oc1ncc(Cl)cn1 [Example I-38] | 10 | 20 | 100 | 100 | – | 100 | 100 | 100 | 100 | 100 | 100 | 100 | – | – | 90 | 100 | 100 | –
O=S(=O)(CCCC(F)(F)F)Oc1c(F)cccc1Oc1ncc(F)cn1 [Example I-42] | – | – | 100 | 100 | 100 | 100 | 100 | 100 | 100 | 100 | 100 | 100 | – | – | – | 90 | 90 | 100
Cc1cccc(Oc2ncc(F)cn2)c1OS(=O)(=O)CCCC(F)(F)F [Example I-46] | 0 | 10 | – | 100 | – | – | 90 | 100 | 100 | 100 | – | 90 | – | – | – | – | 100 | –
O=S(=O)(CC1CC(F)(F)C1)Oc1c(F)cccc1Oc1ncc(Cl)cn1 [Example I-53] | – | – | 100 | 100 | 100 | 100 | 100 | 100 | 100 | 100 | 100 | 100 | 90 | 90 | 90 | 90 | 90 | 100
O=S(=O)(CCC(F)=C(F)F)Oc1c(F)cccc1Oc1ncc(Cl)cn1 [Example I-70] | 20 | – | – | 100 | – | – | – | 100 | 100 | 100 | 100 | 100 | – | – | – | 90 | 100 | 80
Cc1cccc(Oc2ncc(Cl)cn2)c1OS(=O)(=O)CC1CC(F)(F)C1 [Example I-74] | 0 | – | – | – | – | 90 | 100 | 100 | 100 | 100 | 90 | 100 | 90 | 100 | 100 | – | 80 | –
N#Cc1cccc(Oc2ncc(Cl)cn2)c1OS(=O)(=O)CCCC(F)(F)F [Example I-81] | 0 | – | 90 | 100 | – | – | – | 80 | 100 | 100 | 100 | 100 | – | – | – | 100 | 100 | 80

Continued, in another order:

Post-emergence efficacy against TRZAS in % ([6]; application rate 80 g/ha) [%] | Post-emergence efficacy against TRZAS in % ([6]; application rate 320 g/ha) [%] | SMILES | Post-emergence efficacy against POLCO in % ([1]; application rate 80 g/ha) [%] | Post-emergence efficacy against POLCO in % ([1]; application rate 320 g/ha) [%] | Pre-emergence efficacy against KCHSC [2, 9] [%] | Pre-emergence efficacy against KCHSC ([2]; pre-emergence, dosage 320 g/ha) [%] | Pre-emergence efficacy against KCHSC [2, 10] [%] | Post-emergence efficacy against ECHCG in % ([3]; application rate 320 g/ha) [%] | Pre-emergence efficacy against DIGSA ([4]; 80 g/ha) [%] | Pre-emergence efficacy against DIGSA ([4]; 320 g/ha) [%] | Post-emergence efficacy against AMARE in % ([5]; application rate 80 g/ha) [%] | Post-emergence efficacy against AMARE in % ([5]; application rate 320 g/ha) [%] | Post-emergence efficacy against POAAN ([7]; 80 g/ha) [%] | Post-emergence efficacy against POAAN ([7]; 320 g/ha) [%] | Post-emergence efficacy against POAAN ([7]; 1280 g/ha) [%] | Post-emergence efficacy against KCHSC in % ([8]; application rate 80 g/ha) [%] | Post-emergence efficacy against KCHSC in % ([8]; application rate 320 g/ha) [%] | Post-emergence efficacy against ECHCG in % ([3]; application rate 80 g/ha) [%]
0 | 20 | O=S(=O)(CCC(F)(F)F)Oc1c(Cl)cccc1Oc1ncc(Br)cn1 [Example I-32] | 80 | 100 | – | 90 | 100 | 90 | – | 100 | 100 | 100 | 90 | 100 | 100 | 90 | 100 | –
0 | 0 | C=CCS(=O)(=O)Oc1ccccc1Oc1ncc(Cl)cn1 [Example I-36] | – | – | – | 90 | 100 | – | – | 100 | – | – | – | – | 90 | – | 90 | –
0 | 0 | O=S(=O)(CCC(F)(F)F)Oc1c(Br)cccc1Oc1ncc(F)cn1 [Example I-43] | – | 90 | – | – | 100 | – | – | 100 | 100 | 100 | – | – | – | 90 | 100 | –
0 | 0 | Cc1cccc(Oc2ncc(F)cn2)c1OS(=O)(=O)CCC(F)(F)F [Example I-45] | – | 100 | – | 100 | 100 | – | 100 | 100 | – | 80 | – | – | – | – | 90 | –
0 | – | O=S(=O)(CCC(F)(F)F)Oc1c(F)cccc1Oc1ncc(F)cn1 [Example I-47] | 100 | 100 | 100 | 100 | 100 | 100 | 100 | 100 | 100 | 100 | – | – | – | 100 | 100 | –
0 | 20 | O=S(=O)(CCC(F)=C(F)F)Oc1c(Cl)cccc1Oc1ncc(Cl)cn1 [Example I-73] | – | – | – | 90 | 90 | – | – | 100 | 80 | 100 | – | – | 100 | 90 | 90 | –
